Test results reported in the NIST ThermoML archive (doi:10.1021/acs.jced.8b00879).

Assay: mn = molality of the nth substance listed, in mol/kg
Details: 85 kPa, Liquid; for viscosity: Capillary tube (Ostwald / Ubbelohde) method; for speed of sound: Frequency=3 MHz, Single path-length method; for mass density: Vibrating tube method

C[N+](C)(C)CCO.O=C([O-])[C@@H]1CCCN1 [2-hydroxy-N,N,N-trimethylethanaminium L-prolinate] + O
Details | mass density [kg/m3] | speed of sound [m/s] | viscosity [mPa·s]
288.15 K, m1 = 0.0136 | 999.51 | 1468.7 | 1.325
288.15 K, m1 = 0.0217 | 999.76 | 1469.9 | 1.337
288.15 K, m1 = 0.0329 | 1000.09 | 1471.5 | 1.351
288.15 K, m1 = 0.044 | 1000.42 | 1473.1 | 1.364
288.15 K, m1 = 0.0525 | 1000.67 | 1474.2 | 1.375
288.15 K, m1 = 0.0626 | 1000.96 | 1475.6 | 1.388
298.15 K, m1 = 0.0136 | 997.47 | 1499 | 1.059
298.15 K, m1 = 0.0217 | 997.71 | 1500.2 | 1.067
298.15 K, m1 = 0.0329 | 998.05 | 1501.8 | 1.077
298.15 K, m1 = 0.044 | 998.38 | 1503.4 | 1.089
298.15 K, m1 = 0.0525 | 998.63 | 1504.5 | 1.096
298.15 K, m1 = 0.0626 | 998.92 | 1505.9 | 1.104
308.15 K, m1 = 0.0136 | 994.45 | 1522.1 | 0.879
308.15 K, m1 = 0.0217 | 994.7 | 1523.3 | 0.884
308.15 K, m1 = 0.0329 | 995.04 | 1524.8 | 0.894
308.15 K, m1 = 0.044 | 995.37 | 1526.4 | 0.902
308.15 K, m1 = 0.0525 | 995.63 | 1527.5 | 0.908
308.15 K, m1 = 0.0626 | 995.92 | 1528.9 | 0.916
318.15 K, m1 = 0.0136 | 990.64 | 1538 | 0.74
318.15 K, m1 = 0.0217 | 990.9 | 1539.1 | 0.746
318.15 K, m1 = 0.0329 | 991.24 | 1540.7 | 0.753
318.15 K, m1 = 0.044 | 991.58 | 1542.2 | 0.76
318.15 K, m1 = 0.0525 | 991.84 | 1543.3 | 0.764
318.15 K, m1 = 0.0626 | 992.13 | 1544.6 | 0.772

C[N+](C)(C)CCO.NCC(=O)[O-] [2-hydroxy-N,N,N-trimethylethanaminium glycinate] + O
Details | mass density [kg/m3] | speed of sound [m/s] | viscosity [mPa·s]
288.15 K, m1 = 0.0111 | 999.43 | 1468.1 | 1.251
288.15 K, m1 = 0.0214 | 999.73 | 1469.5 | 1.263
288.15 K, m1 = 0.0318 | 1000.03 | 1470.8 | 1.275
288.15 K, m1 = 0.0417 | 1000.3 | 1472.1 | 1.288
288.15 K, m1 = 0.0534 | 1000.63 | 1473.6 | 1.302
288.15 K, m1 = 0.0619 | 1000.85 | 1474.7 | 1.313
298.15 K, m1 = 0.0111 | 997.68 | 1498.2 | 1
298.15 K, m1 = 0.0214 | 997.97 | 1499.4 | 1.011
298.15 K, m1 = 0.0318 | 998.25 | 1500.6 | 1.02
298.15 K, m1 = 0.0417 | 998.57 | 1501.7 | 1.03
298.15 K, m1 = 0.0534 | 998.8 | 1503 | 1.042
298.15 K, m1 = 0.0619 | 997.38 | 1504 | 1.049
308.15 K, m1 = 0.0111 | 994.36 | 1521.1 | 0.832
308.15 K, m1 = 0.0214 | 994.66 | 1522.2 | 0.841
308.15 K, m1 = 0.0318 | 994.96 | 1523.2 | 0.851
308.15 K, m1 = 0.0417 | 995.24 | 1524.1 | 0.858
308.15 K, m1 = 0.0534 | 995.56 | 1525.2 | 0.869
308.15 K, m1 = 0.0619 | 995.79 | 1526 | 0.877
318.15 K, m1 = 0.0111 | 990.55 | 1536.9 | 0.706
318.15 K, m1 = 0.0214 | 990.85 | 1537.7 | 0.714
318.15 K, m1 = 0.0318 | 991.15 | 1538.6 | 0.722
318.15 K, m1 = 0.0417 | 991.43 | 1539.4 | 0.729
318.15 K, m1 = 0.0534 | 991.75 | 1540.5 | 0.737
318.15 K, m1 = 0.0619 | 991.99 | 1541.2 | 0.741
